Patent US20120328569A1, “INHIBITORS OF HEPATITIS C VIRUS NS5B POLYMERASE” (priority 2010, published 2012)

The compounds below were run on HCV genotype 1b replicon (assay: HCV replicon assay, cell ELISA with antibody to replicon-encoded NS3/4A (genotype 1b replicon)). Settings: Hepatitis C virus, 96 h, read-out: Replicon 1b IC50 (nM), HCV genotype 1b replicon cells, 96 hours incubation, NS3/4A ELISA readout.
Format: cell-based, hepatitis C virus
Method in brief: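 Replicon-harbouring cells carrying neomycin phosphotransferase were incubated 96 h with a compound dilution series without G418. Replication was quantified indirectly by a cell ELISA detecting replicon-encoded NS3/4A. IC50 values were calculated relative to DMSO control with a four-parameter fit.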

Compared with `CNC(=O)c1c(-c2ccc(F)cc2)oc2cc(N(C)S(C)(=O)=O)c(-c3cccc(-c4nc5ccc(CN)cc5s4)c3)cc12` [Example 297, 5-(3-(6-(aminomethyl)benzo[d]thiazol-2-yl)phenyl)-2-(4-fluorophenyl)-N-methyl-6-(N-methylmethylsulfonamido)benzofuran-3-carboxamide], `CNC(=O)c1c(-c2ccc(F)cc2)oc2cc(N(C)S(C)(=O)=O)c(-c3cccc(-c4nc5ccc(CN(C)C)cc5s4)c3)cc12` [Example 298, 5-(3-(6-((dimethylamino)methyl)benzo[d]thiazol-2-yl)phenyl)-2-(4-fluorophenyl)-N-methyl-6-(N-methylmethylsulfonamido)benzofuran-3-carboxamide] is 3.4-fold lower in IC50: 20.5 nM for the first, 6 nM for the second. The second is the more potent here.

First: CNC(=O)c1c(-c2ccc(F)cc2)oc2cc(N(C)S(C)(=O)=O)c(-c3cccc(-c4nc5cccnc5[nH]4)c3)cc12 [Example 299, 5-(3-(3H-imidazo[4,5-b]pyridin-2-yl)phenyl)-2-(4-fluorophenyl)-N-methyl-6-(N-methylmethylsulfonamido)benzofuran-3-carboxamide]
Second: CNC(=O)c1c(-c2ccc(F)cc2)oc2cc(N(C)S(C)(=O)=O)c(-c3cccc(-c4nc5ccncc5[nH]4)c3)cc12 [Example 333]
The IC50 of the first is 1.8-fold lower: 3.3 nM for the first, 6 nM for the second.

`CNC(=O)c1c(-c2ccc(F)cc2)oc2cc(N(C)S(C)(=O)=O)c(-c3ccc(F)c(-c4nc5ccccc5[nH]4)c3)cc12` [Example 300] and `CNC(=O)c1c(-c2ccc(F)cc2)oc2cc(N(C)S(C)(=O)=O)c(-c3ccc(F)c(-c4nc5cc(F)ccc5[nH]4)c3)cc12` [Example 301] are within 1.5-fold of each other in IC50: 1.5 nM for the first, 1.9 nM for the second.

`CNC(=O)c1c(-c2ccc(F)cc2)oc2cc(N(C)S(C)(=O)=O)c(-c3ccc(F)c(-c4nc5cc(C)ccc5[nH]4)c3)cc12` [Example 302] and `CNC(=O)c1c(-c2ccc(F)cc2)oc2cc(N(C)S(C)(=O)=O)c(-c3ccc(F)c(-c4nc5ccncc5[nH]4)c3)cc12` [Example 334] are within 1.5-fold of each other in IC50: 3.1 nM for the first, 3.3 nM for the second.

`CNC(=O)c1c(-c2ccc(F)cc2)oc2cc(N(C)S(C)(=O)=O)c(-c3cccc(-c4nc5c(C)cccc5[nH]4)c3)cc12` [Example 303] and `CNC(=O)c1c(-c2ccc(F)cc2)oc2cc(N(C)S(C)(=O)=O)c(-c3cccc(-c4nc5c(F)cccc5[nH]4)c3)cc12` [Example 304] are within 1.5-fold of each other in IC50: 1.8 nM for the first, 1.3 nM for the second.

`CNC(=O)c1c(-c2ccc(F)cc2)oc2cc(N(C)S(C)(=O)=O)c(-c3cc(F)cc(-c4nc5cccnc5[nH]4)c3)cc12` [Example 305] and `CNC(=O)c1c(-c2ccc(F)cc2)oc2cc(N(C)S(C)(=O)=O)c(-c3cc(OC)cc(-c4nc5cccnc5[nH]4)c3)cc12` [Example 314] are within 1.5-fold of each other in IC50: 1.1 nM for the first, 1.5 nM for the second.

First: CNC(=O)c1c(-c2ccc(F)cc2)oc2cc(N(C)S(C)(=O)=O)c(-c3cc(F)cc(-c4nc5ccc(OC)nc5[nH]4)c3)cc12 [Example 306]
Second: CNC(=O)c1c(-c2ccc(F)cc2)oc2cc(N(C)S(C)(=O)=O)c(-c3cc(OC)cc(-c4nc5ccc(OC)nc5[nH]4)c3)cc12 [Example 315]
The IC50 of the first is 6.4-fold higher: 28.8 nM for the first, 4.5 nM for the second.

`CNC(=O)c1c(-c2ccc(F)cc2)oc2cc(N(C)S(C)(=O)=O)c(-c3cc(F)cc(-c4nc5c(C)ccnc5[nH]4)c3)cc12` [Example 307] and `CNC(=O)c1c(-c2ccc(F)cc2)oc2cc(N(C)S(C)(=O)=O)c(-c3cc(OC)cc(-c4nc5c(C)ccnc5[nH]4)c3)cc12` [Example 316] are within 1.5-fold of each other in IC50: 2.4 nM for the first, 2.8 nM for the second.

Compared with `CNC(=O)c1c(-c2ccc(F)cc2)oc2cc(N(C)S(C)(=O)=O)c(-c3ccc(F)c(-c4nc5cccnc5[nH]4)c3)cc12` [Example 308], `CNC(=O)c1c(-c2ccc(F)cc2)oc2cc(N(C)S(C)(=O)=O)c(-c3ccc(Cl)c(-c4nc5cccnc5[nH]4)c3)cc12` [Example 319] is 5.4-fold higher in IC50: 2.5 nM for the first, 13.6 nM for the second. The first is the more potent here.

First: CNC(=O)c1c(-c2ccc(F)cc2)oc2cc(N(C)S(C)(=O)=O)c(-c3ccc(F)c(-c4nc5ccc(OC)nc5[nH]4)c3)cc12 [Example 309]
Second: CNC(=O)c1c(-c2ccc(F)cc2)oc2cc(N(C)S(C)(=O)=O)c(-c3ccc(Cl)c(-c4nc5ccc(OC)nc5[nH]4)c3)cc12 [Example 320]
The IC50 of the first is 3.5-fold lower: 3.7 nM for the first, 13.1 nM for the second.

Compared with `CNC(=O)c1c(-c2ccc(F)cc2)oc2cc(N(C)S(C)(=O)=O)c(-c3ccc(F)c(-c4nc5c(C)ccnc5[nH]4)c3)cc12` [Example 310], `CNC(=O)c1c(-c2ccc(F)cc2)oc2cc(N(C)S(C)(=O)=O)c(-c3ccc(Cl)c(-c4nc5c(C)ccnc5[nH]4)c3)cc12` [Example 321] is 3.7-fold higher in IC50: 1.8 nM for the first, 6.6 nM for the second.

First: CNC(=O)c1c(-c2ccc(F)cc2)oc2cc(N(C)S(C)(=O)=O)c(-c3ccc(F)c(-c4nc5cc(Cl)cnc5[nH]4)c3)cc12 [Example 311]
Second: CNC(=O)c1c(-c2ccc(F)cc2)oc2cc(N(C)S(C)(=O)=O)c(-c3ccc(Cl)c(-c4nc5cc(Cl)cnc5[nH]4)c3)cc12 [Example 322]
The IC50 of the first is 11-fold lower: 1.7 nM for the first, 19.5 nM for the second. The first is the more potent here.

Compared with `CNC(=O)c1c(-c2ccc(F)cc2)oc2cc(N(C)S(C)(=O)=O)c(-c3ccc(OC)c(-c4nc5cccnc5[nH]4)c3)cc12` [Example 312], `CNC(=O)c1c(-c2ccc(F)cc2)oc2cc(N(C)S(C)(=O)=O)c(-c3ccc(OC)c(-c4nc5cncnc5[nH]4)c3)cc12` [Example 344] is 2-fold higher in IC50: 1.1 nM for the first, 2.2 nM for the second.

`CNC(=O)c1c(-c2ccc(F)cc2)oc2cc(N(C)S(C)(=O)=O)c(-c3cc(OC)cc(-c4nc5cc(Cl)cnc5[nH]4)c3)cc12` [Example 317] and `CNC(=O)c1c(-c2ccc(F)cc2)oc2cc(N(C)S(C)(=O)=O)c(-c3cc(OC)cc(-c4nc5cncnc5[nH]4)c3)cc12` [Example 345] are within 1.5-fold of each other in IC50: 2.9 nM for the first, 2.1 nM for the second.

First: CNC(=O)c1c(-c2ccc(F)cc2)oc2cc(N(C)S(C)(=O)=O)c(-c3cccc(-c4nc5c(C)ccnc5[nH]4)c3O)cc12 [Example 318]
Second: CNC(=O)c1c(-c2ccc(F)cc2)oc2cc(N(C)S(C)(=O)=O)c(-c3cccc(-c4nc5c(C)ccnc5[nH]4)c3)cc12 [Example 330]
The IC50 of the first is 6.9-fold higher: 18.7 nM for the first, 2.7 nM for the second. The second is the more potent here.

Going from `CNC(=O)c1c(-c2ccc(F)cc2)oc2cc(N(C)S(C)(=O)=O)c(-c3cc(C#N)cc(-c4nc5cccnc5[nH]4)c3)cc12` [Example 323] to `CNC(=O)c1c(-c2ccc(F)cc2)oc2cc(N(C)S(C)(=O)=O)c(-c3cc(C#N)cc(-c4nc5cncnc5[nH]4)c3)cc12` [Example 348], the IC50 rises from 2.4 nM to 72.7 nM (30-fold).

`CNC(=O)c1c(-c2ccc(F)cc2)oc2cc(N(C)S(C)(=O)=O)c(-c3cc(C#N)cc(-c4nc5ccc(OC)nc5[nH]4)c3)cc12` [Example 324] and `CNC(=O)c1c(-c2ccc(F)cc2)oc2cc(N(C)S(C)(=O)=O)c(-c3cccc(-c4nc5ccc(OC)nc5[nH]4)c3)cc12` [Example 327] are within 1.5-fold of each other in IC50: 3.5 nM for the first, 3.8 nM for the second.

First: CNC(=O)c1c(-c2ccc(F)cc2)oc2cc(N(C)S(C)(=O)=O)c(-c3cc(C#N)cc(-c4nc5c(C)ccnc5[nH]4)c3)cc12 [Example 325]
Second: CNC(=O)c1c(-c2ccc(F)cc2)oc2cc(N(C)S(C)(=O)=O)c(-c3cc(F)cc(-c4nc5c(N)ncnc5[nH]4)c3)cc12 [Example 350]
The IC50 of the first is 4.6-fold higher: 3.2 nM for the first, 0.7 nM for the second.

Going from `CNC(=O)c1c(-c2ccc(F)cc2)oc2cc(N(C)S(C)(=O)=O)c(-c3cccc(-c4nc5ccc(=O)[nH]c5[nH]4)c3)cc12` [Example 328] to `CNC(=O)c1c(-c2ccc(F)cc2)oc2cc(N(C)S(C)(=O)=O)c(-c3cccc(-c4nc5cc(Cl)cnc5[nH]4)c3)cc12` [Example 331], the IC50 falls from 13.5 nM to 1.8 nM (7.5-fold). The second is the more potent here.

Compared with `CNC(=O)c1c(-c2ccc(F)cc2)oc2cc(N(C)S(C)(=O)=O)c(-c3cccc(-c4nc5ccc(OS(C)(=O)=O)nc5[nH]4)c3)cc12` [Example 329], `CNC(=O)c1c(-c2ccc(F)cc2)oc2cc(N(C)S(C)(=O)=O)c(-c3cccc(-c4nc5cncnc5[nH]4)c3)cc12` [Example 341] is 3-fold higher in IC50: 4.9 nM for the first, 14.6 nM for the second. The first is the more potent here.

Going from `CNC(=O)c1c(-c2ccc(F)cc2)oc2cc(N(C)S(C)(=O)=O)c(-c3cccc(-c4nc5ccccc5n4C)c3)cc12` [Example 332] to `CNC(=O)c1c(-c2ccc(F)cc2)oc2cc(N(C)S(C)(=O)=O)c(-c3cccc(-c4ccc5cccnc5c4)c3)cc12` [Example 353], the IC50 falls from 9.6 nM to 4.2 nM (2.3-fold).

Going from `CNC(=O)c1c(-c2ccc(F)cc2)oc2cc(N(C)S(C)(=O)=O)c(-c3cc(-c4nc5ccncc5[nH]4)ccc3F)cc12` [Example 335] to `CNC(=O)c1c(-c2ccc(F)cc2)oc2cc(N(C)S(C)(=O)=O)c(-c3ccc(F)c(-c4nc5cncnc5[nH]4)c3)cc12` [Example 342], the IC50 falls from 26.4 nM to 5.1 nM (5.2-fold).

Compared with `CNC(=O)c1c(-c2ccc(F)cc2)oc2cc(N(C)S(C)(=O)=O)c(-c3cccc(-c4nc5nccnc5[nH]4)c3)cc12` [Example 336], `CNC(=O)c1c(-c2ccc(F)cc2)oc2cc(N(C)S(C)(=O)=O)c(-c3ccc(F)c(-c4nc5nccnc5[nH]4)c3)cc12` [Example 337] is 2.9-fold higher in IC50: 2.7 nM for the first, 7.8 nM for the second. The first is the more potent here.

Going from `CNC(=O)c1c(-c2ccc(F)cc2)oc2cc(N(C)S(C)(=O)=O)c(-c3ccc(OC)c(-c4nc5nccnc5[nH]4)c3)cc12` [Example 338] to `CNC(=O)c1c(-c2ccc(F)cc2)oc2cc(N(C)S(C)(=O)=O)c(-c3ccc(Cl)c(-c4nc5nccnc5[nH]4)c3)cc12` [Example 340], the IC50 rises from 1.5 nM to 15.8 nM (11-fold).

`CNC(=O)c1c(-c2ccc(F)cc2)oc2cc(N(C)S(C)(=O)=O)c(-c3cc(OC)cc(-c4nc5nccnc5[nH]4)c3)cc12` [Example 339] and `CNC(=O)c1c(-c2ccc(F)cc2)oc2cc(N(C)S(C)(=O)=O)c(-c3ccc(OC)c(-c4nc5c(N)ncnc5[nH]4)c3)cc12` [Example 349] are within 1.5-fold of each other in IC50: 4 nM for the first, 5.7 nM for the second.

Going from `CNC(=O)c1c(-c2ccc(F)cc2)oc2cc(N(C)S(C)(=O)=O)c(-c3cccc(-c4nc5cncnc5[nH]4)c3O)cc12` [Example 346] to `CNC(=O)c1c(-c2ccc(F)cc2)oc2cc(N(C)S(C)(=O)=O)c(-c3ccc(Cl)c(-c4nc5cncnc5[nH]4)c3)cc12` [Example 347], the IC50 falls from 165 nM to 8.1 nM (20-fold). The second is the more potent here.

Going from `CNC(=O)c1c(-c2ccc(F)cc2)oc2cc(N(C)S(C)(=O)=O)c(-c3cccc(-c4cc5ccc(OC)cc5[nH]4)c3)cc12` [Example 356] to `CNC(=O)c1c(-c2ccc(F)cc2)oc2cc(N(C)S(C)(=O)=O)c(-c3cccc(-c4cc5ccc(OCc6ccccc6)cc5[nH]4)c3)cc12` [Example 360], the IC50 rises from 5.9 nM to 30.5 nM (5.2-fold). The first is the more potent here.
